Measured values: PubChem BioAssay AID328 (DTP/NCI, 2004)
Values joined by “and” are separate entries in the source; they are usually repeats but may differ in a detail not shown here. Equal entries are not always repeated. Inconclusive results and toxic doses are left out. Rule for the calls: active = survival T/C of 150% or more; inactive = T/C below 125% in these data.

Test system: BDF1 mice, P388 leukemia ip, median survival T/C
Experiment: NCI In Vivo Anticancer Drug Screen. Data for tumor model P388 Leukemia (intraperitoneal) in B6D2F1 (BDF1) mice
Details: endpoint: median survival time, higher = longer survival
Method in brief: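 Vehicle-dosed animals serve as the reference; survival of compound-dosed, tumour-implanted mice is divided by it.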

[1] = dose: 25.0 mg/kg/injection, schedule: Q01DX009 (ip), vehicle: saline with Tween-80
[2] = dose: 50.0 mg/kg/injection, schedule: Q01DX009 (ip), vehicle: saline with Tween-80
[3] = dose: 100.0 mg/kg/injection, schedule: Q01DX009 (ip), vehicle: saline with Tween-80
[4] = dose: 200.0 mg/kg/injection, schedule: Q01DX009 (ip), vehicle: saline with Tween-80
[5] = dose: 400.0 mg/kg/injection, schedule: Q04DX003 (ip), vehicle: Klucel (hydroxypropylcellulose) (HPC)
[6] = dose: 12.5 mg/kg/injection, schedule: Q04DX003 (ip), vehicle: saline
[7] = dose: 25.0 mg/kg/injection, schedule: Q04DX003 (ip), vehicle: saline
[8] = dose: 100.0 mg/kg/injection, schedule: Q01DX001 (ip), vehicle: saline with Tween-80
[9] = dose: 200.0 mg/kg/injection, schedule: Q01DX001 (ip), vehicle: saline with Tween-80
[10] = dose: 400.0 mg/kg/injection, schedule: Q01DX001 (ip), vehicle: saline with Tween-80

Measured: T/C

O=C(O)c1ccccc1P12(OC(=O)c3ccccc31)OC(=O)c1ccccc12
inactive: [1] 99 % of control | [2] 99 % of control | [3] 90 % of control

O=C1CCC(NC2OC(=O)c3ccccc32)C(=O)O1 (stereo not given)
inactive: [2] 111 % of control | [3] 102 % of control | [4] 109 % of control

Nc1ccc(CCc2ccc(Cl)cc2S(=O)(=O)F)c(Cl)c1
inactive: dose: 100.0 mg/kg/injection, schedule: Q01DX009 (ip), vehicle: saline 95 % of control | dose: 200.0 mg/kg/injection, schedule: Q01DX009 (ip), vehicle: saline 91 % of control

O=C1C(C(O)c2ccccc2)SC(c2ccccc2)N1c1ccccc1 (stereo not given)
inactive: dose: 12.5 mg/kg/injection, schedule: Q04DX003 (ip), vehicle: Klucel (hydroxypropylcellulose) (HPC) 96 % of control | dose: 25.0 mg/kg/injection, schedule: Q04DX003 (ip), vehicle: Klucel (hydroxypropylcellulose) (HPC) 96 % of control | dose: 50.0 mg/kg/injection, schedule: Q04DX003 (ip), vehicle: Klucel (hydroxypropylcellulose) (HPC) 96 % of control | [5] 90 % of control

Nc1nc(SCc2ccccc2)c2[nH]cnc2n1
inactive: dose: 8.0 mg/kg/injection, schedule: Q01DX010 (ip), vehicle: saline 90 % of control and 100 % of control | dose: 16.0 mg/kg/injection, schedule: Q01DX010 (ip), vehicle: saline 90 % of control and 105 % of control | dose: 32.0 mg/kg/injection, schedule: Q01DX010 (ip), vehicle: saline 90 % of control and 110 % of control | dose: 64.0 mg/kg/injection, schedule: Q01DX010 (ip), vehicle: saline 104 % of control and 120 % of control

NC(CCl)=NC1CCCCC1
inactive: [6] 102 % of control | dose: 22.0 mg/kg/injection, schedule: Q04DX003 (ip), vehicle: saline 121 % of control | [7] 117 % of control | dose: 75.0 mg/kg/injection, schedule: Q04DX003 (ip), vehicle: saline 96 % of control | dose: 100.0 mg/kg/injection, schedule: Q04DX003 (ip), vehicle: saline 88 % of control

Nc1ccc(NS(=O)(=O)Cc2ccccc2)cc1
inactive: dose: 25.0 mg/kg/injection, schedule: Q01DX001 (ip), vehicle: saline with Tween-80 100 % of control | dose: 50.0 mg/kg/injection, schedule: Q01DX001 (ip), vehicle: saline with Tween-80 100 % of control | [8] 100 % of control

CC(NCCCSc1ccccc1)C(O)c1ccc(O)cc1 (stereo not given)
inactive: [2] 99 % of control and 100 % of control and 105 % of control | [3] 110 % of control and 114 % of control and 119 % of control

COc1cc2cnc3c4cc(OC)c(OC)cc4ccc3c2cc1OC
inactive: dose: 20.0 mg/kg/injection, schedule: Q01DX009 (ip), vehicle: saline with Tween-80 100 % of control | dose: 40.0 mg/kg/injection, schedule: Q01DX009 (ip), vehicle: saline with Tween-80 100 % of control | dose: 80.0 mg/kg/injection, schedule: Q01DX009 (ip), vehicle: saline with Tween-80 115 % of control | dose: 120.0 mg/kg/injection, schedule: Q01DX009 (ip), vehicle: saline with Tween-80 100 % of control | dose: 240.0 mg/kg/injection, schedule: Q01DX009 (ip), vehicle: saline with Tween-80 100 % of control

O=c1[nH]c(=O)[nH]c(=O)[nH]1
inactive: dose: 75.0 mg/kg/injection, schedule: Q01DX009 (ip), vehicle: Klucel (hydroxypropylcellulose) (HPC) 120 % of control | dose: 150.0 mg/kg/injection, schedule: Q01DX009 (ip), vehicle: Klucel (hydroxypropylcellulose) (HPC) 120 % of control | dose: 300.0 mg/kg/injection, schedule: Q01DX009 (ip), vehicle: Klucel (hydroxypropylcellulose) (HPC) 110 % of control

Nc1ccc2c(c1)Cc1cc(Br)ccc1-2
inactive: dose: 100.0 mg/kg/injection, schedule: Q04DX003 (ip), vehicle: Klucel (hydroxypropylcellulose) (HPC) 104 % of control | dose: 200.0 mg/kg/injection, schedule: Q04DX003 (ip), vehicle: Klucel (hydroxypropylcellulose) (HPC) 100 % of control | [5] 100 % of control

CCCCCCC(=O)/C=C/c1cccc(OC)c1
inactive: [2] 90 % of control | [3] 105 % of control | [4] 105 % of control

O=[N+]([O-])c1cccnc1Oc1cccc(C(F)(F)F)c1
inactive: dose: 50.0 mg/kg/injection, schedule: Q01DX001 (ip), vehicle: other 100 % of control | dose: 100.0 mg/kg/injection, schedule: Q01DX001 (ip), vehicle: other 95 % of control | dose: 200.0 mg/kg/injection, schedule: Q01DX001 (ip), vehicle: other 86 % of control | dose: 400.0 mg/kg/injection, schedule: Q01DX001 (ip), vehicle: other 95 % of control

O=C(Cn1ccc(=O)[nH]c1=O)Nc1nccs1
inactive: dose: 3.12 mg/kg/injection, schedule: Q04DX003 (ip), vehicle: saline 93 % of control | dose: 6.25 mg/kg/injection, schedule: Q04DX003 (ip), vehicle: saline 107 % of control and 121 % of control | [6] 110 % of control and 121 % of control | [7] 109 % of control and 121 % of control

Nc1ccccc1SC1CC(=O)N(c2ccc(Br)c(Cl)c2)C1=O (stereo not given)
inactive: dose: 0.1 mg/kg/injection, schedule: Q01DX005 (ip), vehicle: saline with Tween-80 98 % of control | dose: 0.2 mg/kg/injection, schedule: Q01DX005 (ip), vehicle: saline with Tween-80 93 % of control | dose: 0.4 mg/kg/injection, schedule: Q01DX005 (ip), vehicle: saline with Tween-80 100 % of control | dose: 1.5 mg/kg/injection, schedule: Q01DX005 (ip), vehicle: saline with Tween-80 95 % of control | dose: 3.0 mg/kg/injection, schedule: Q01DX005 (ip), vehicle: saline with Tween-80 90 % of control

FC(F)(F)C(Cl)(Cc1ccc2ccccc2n1)C(F)(F)F
inactive: [8] 100 % of control | [9] 100 % of control | [10] 104 % of control

COC(=O)C1=C(C)NC(C)=C(C(=O)OC)C(N2C(=O)CCC2=O)C1 (stereo not given)
inactive: dose: 12.5 mg/kg/injection, schedule: Q01DX009 (ip), vehicle: saline with Tween-80 97 % of control | [1] 94 % of control | [2] 95 % of control and 123 % of control | [3] 94 % of control and 107 % of control | [4] 107 % of control

CCCCCCCCCCCC1=NC(CO)(CO)CO1
inactive: [8] 100 % of control | [9] 104 % of control | [10] 100 % of control

C=C1C(=O)OC2CC3(C)OC3C3OC3C3=CC(OC3=O)C12 (stereo not given)
inactive: dose: 1.25 mg/kg/injection, schedule: Q01DX010 (ip), vehicle: saline 115 % of control | dose: 2.5 mg/kg/injection, schedule: Q01DX010 (ip), vehicle: saline 115 % of control | dose: 5.0 mg/kg/injection, schedule: Q01DX010 (ip), vehicle: saline 115 % of control | dose: 10.0 mg/kg/injection, schedule: Q01DX010 (ip), vehicle: saline 100 % of control

CC(=O)Nc1ccc(NNCc2ccccc2)c(N)c1
inactive: [8] 97 % of control | [9] 96 % of control | [10] 91 % of control

CC1(C)OCC(C2OC3OC(C)(C)OC3C2O)O1 (stereo not given)
inactive: dose: 20.0 mg/kg/injection, schedule: Q01DX009 (ip), vehicle: saline 107 % of control | dose: 40.0 mg/kg/injection, schedule: Q01DX009 (ip), vehicle: saline 109 % of control | dose: 80.0 mg/kg/injection, schedule: Q01DX009 (ip), vehicle: saline 108 % of control

CCOP(=O)(O)OCC.[Al]
inactive: [2] 100 % of control | [3] 103 % of control | [4] 103 % of control

OC(C(c1ccccc1)N1CCCCC1)C(O)(c1ccccc1)c1ccccc1 (stereo not given)
inactive: dose: 100.0 mg/kg/injection, schedule: Q01DX001 (ip), vehicle: saline sonified 100 % of control | dose: 200.0 mg/kg/injection, schedule: Q01DX001 (ip), vehicle: saline sonified 105 % of control | dose: 400.0 mg/kg/injection, schedule: Q01DX001 (ip), vehicle: saline sonified 100 % of control
